Results on seven compounds are retold here after BindingDB's records for doi:10.3109/14756369909030324 (University of Catania, 1999).

The target of this test is T1, Amine oxidase [flavin-containing] B (Rattus norvegicus, UniProt P19643).
T1 sequence (P19643 whole entry): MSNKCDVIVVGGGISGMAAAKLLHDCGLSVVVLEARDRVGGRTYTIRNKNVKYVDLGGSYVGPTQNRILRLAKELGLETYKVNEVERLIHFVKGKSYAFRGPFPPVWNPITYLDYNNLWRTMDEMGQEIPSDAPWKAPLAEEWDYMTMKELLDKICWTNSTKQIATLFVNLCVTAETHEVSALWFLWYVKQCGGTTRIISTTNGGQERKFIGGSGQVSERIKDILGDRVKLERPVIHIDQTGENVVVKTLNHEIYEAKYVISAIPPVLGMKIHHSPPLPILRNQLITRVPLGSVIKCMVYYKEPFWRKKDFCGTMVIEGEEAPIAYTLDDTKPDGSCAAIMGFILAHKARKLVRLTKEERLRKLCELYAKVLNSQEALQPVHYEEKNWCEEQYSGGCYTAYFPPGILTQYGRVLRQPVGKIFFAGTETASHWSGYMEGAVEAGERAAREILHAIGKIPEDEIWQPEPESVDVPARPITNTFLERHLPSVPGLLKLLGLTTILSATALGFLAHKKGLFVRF
Put plainly: Enzyme Assay. Conditions: 37 °C. The protocol:
MAO-B activity was measured by the spectrofluorimetric method of Morinan and Garratt.
Broadly, the IC50 is the point on the concentration scale where inhibition reaches its midpoint. Lower therefore signals greater potency. The compound `Cc1nc(-c2ccccc2)sc1C(=O)CCN1CCCCC1` [Thiazolyl derivative, 3] displayed an IC50 of 43.1 µM. In other words, the double-digit micromolar range.
The compound `O=C(CN1CCCCC1)Nc1nc(-c2ccccc2)cs1` [Thiazolyl derivative, 9] returned an IC50 of 90.2 µM. Against the preceding compound, the IC50 is about 2.1-fold higher.
`Cc1nc(-c2ccccc2)sc1C(=O)CCN1CCOCC1` [Thiazolyl derivative, 4] gave an IC50 of 7.8 µM. This IC50 is about 12-fold lower than that of the compound before.
To `CCN(CC)CCC(=O)c1sc(NC)nc1C` [Thiazolyl derivative, 1] belongs 82.3 µM; to `CCN(CC)CCC(=O)c1sc(-c2ccc(C)cc2)nc1C` [Thiazolyl derivative, 2], 7.5 µM.
To `COc1ccc(-c2csc(NC(=O)CCN3CCCCC3)n2)cc1` [Thiazolyl derivative, 11] belongs 313 µM.
`COc1ccc(-c2csc(NC(=O)CN3CCCCC3)n2)cc1` [Thiazolyl derivative, 10] yielded an IC50 of 411 µM.
